Assay results as given in patent US8323622B2, “Ionic complex nanoparticles for detecting heparanase activities and method for preparing the same” (Korea Institute of Science and Technology, priority 2009, dated 2012).

Assays:
[1] = molecular target: T1, heparanase (Homo sapiens, UniProt Q9Y251); experiment: Fluorescence recovery of nanoparticles treated with heparanase or heparanase+inhibitor; assay type: biochemical; conditions: 37[…], one hour; HS-Cy5.5/GC-BHQ3 probe
T1 sequence (Q9Y251 158-543 limits assumed): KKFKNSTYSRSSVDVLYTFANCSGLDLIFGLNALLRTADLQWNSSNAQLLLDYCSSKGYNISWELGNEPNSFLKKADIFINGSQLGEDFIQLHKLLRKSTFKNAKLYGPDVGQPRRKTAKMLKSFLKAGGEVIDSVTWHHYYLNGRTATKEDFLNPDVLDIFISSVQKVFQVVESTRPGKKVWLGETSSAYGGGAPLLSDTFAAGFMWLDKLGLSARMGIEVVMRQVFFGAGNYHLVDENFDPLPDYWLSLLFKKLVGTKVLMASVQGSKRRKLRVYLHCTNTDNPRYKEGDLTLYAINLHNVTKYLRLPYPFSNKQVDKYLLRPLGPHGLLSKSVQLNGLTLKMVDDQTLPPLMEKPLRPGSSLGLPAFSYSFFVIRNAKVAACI
T1 sequence (Q9Y251 36-109 limits assumed): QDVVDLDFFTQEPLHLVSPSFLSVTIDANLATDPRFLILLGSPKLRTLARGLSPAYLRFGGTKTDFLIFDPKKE
Method: By using the ionic-complex nanoparticles of HS-Cy5.5/GC-BHQ3 prepared in the preparation example 1, heparanase activities with or without heparanase inhibitor treatment were imaged.
The ionic-complex nanoparticles of HS-Cy5.5/GC-BHQ3 prepared in the preparation example 1 were treacted with ‘heparanase’ and ‘heparanase+inhibitor’ at a temperature of 37 °C for one hour, and then fluorescence emission therefrom by an enzyme degradation reaction was observed. After lapse of one hour, the fluorescence of the nanoparticles was observed by using a Kodak Image Station 4000MM Digital Imaging System mounted with a charge coupled device (CCD) camera. […] From the result, it could be seen that the ionic-complex nanoparticles of HS-Cy5.5/GC-BHQ3 could image heparanase enzymes, and could be applied to a composition for screening drugs of heparanase inhibitors or effects of drugs.

[2] = molecular target: T2, heparanase (Mus musculus, UniProt Q6YGZ1); experiment: Imaging of heparanase expression in SCC7 cancer model; assay type: in vivo; conditions: 20 mg/kg heparin injected into cancer tissues 20 minutes before probe; SCC7 nude mice
T2 construct: It is known that the SCC7 cancer tissues express a large amount of heparanase; from tissue; host or cells: SCC7 tumour tissue in nude mice
T2 sequence (Q6YGZ1 150-535 limits assumed): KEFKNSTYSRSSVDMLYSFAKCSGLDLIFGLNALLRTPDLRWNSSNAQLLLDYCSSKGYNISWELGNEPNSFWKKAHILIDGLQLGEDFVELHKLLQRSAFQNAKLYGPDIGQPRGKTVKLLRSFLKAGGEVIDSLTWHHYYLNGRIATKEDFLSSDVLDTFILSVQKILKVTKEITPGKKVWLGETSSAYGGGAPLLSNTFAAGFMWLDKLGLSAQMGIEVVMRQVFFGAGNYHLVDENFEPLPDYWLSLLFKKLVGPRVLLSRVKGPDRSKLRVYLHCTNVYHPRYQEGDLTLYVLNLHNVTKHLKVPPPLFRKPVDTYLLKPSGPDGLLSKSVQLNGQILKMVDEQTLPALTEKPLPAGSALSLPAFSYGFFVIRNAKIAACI
T2 sequence (Q6YGZ1 28-101 limits assumed): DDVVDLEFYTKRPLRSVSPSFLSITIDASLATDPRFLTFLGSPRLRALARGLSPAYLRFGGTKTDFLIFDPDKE
Method: To establish a cancer model, 1×10^6 SCC7 cancer cells were implanted in nude mice. Here, the SCC7 are epithelial cancer cells, and commercially available from American Type Culture Collection (ATCC). Next, when the cancer has a size of about 5-8 mm, the ionic-complex nanoparticles of HS-Cy5.5/GC-BHQ3 were injected into veins of the mice tails. Then, heparanase expression was imaged by using an eXplore Optix image device.
It is known that the SCC7 cancer tissues express a large amount of heparanase. Accordingly, in order to test the ability of a heparanase inhibitor to inhibit heparanase, 20 mg/kg of heparin was injected into cancer tissues. After lapse of 20 minutes, the ionic-complex nanoparticles of HS-Cy5.5/GC-BHQ3 were injected into veins of the mice tails. Then, decrease of heparanase activities was imaged by using the explore Optix image device.

heparin
fluorescence intensity of nanoparticles when 'heparanase+inhibitor' were treated [1]: decreased
fluorescence intensity in cancer tissues of heparanase inhibitor-injected group [2]: decreased fluorescence intensity
